Measured values taken from patent US9365588B2, “Benzoxazines as modulators of ion channels” (Vertex Pharmaceuticals Incorporated, priority 2011, dated 2016).

Biological target: human NaV 1.7 (Homo sapiens, UniProt Q15858)
Assay: E-VIPR optical membrane potential assay with electrical stimulation
Format: cell-based
Conditions: sodium channel inhibition; read-out: Binned Activity Data (IC50)
Method in brief: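 Membrane-potential read-out: background-subtracted 460 nm/580 nm ratio during a 9 s current-controlled stimulus, 400 Hz scan. Before stimulation, NaV1.7-HEK cells carried coumarin/oxonol dye and compound (final DMSO 0.625%) for 20–35 min at room temperature; tetracaine 125 μM served as positive control.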

Sequence of human NaV 1.7 (Q15858 whole entry): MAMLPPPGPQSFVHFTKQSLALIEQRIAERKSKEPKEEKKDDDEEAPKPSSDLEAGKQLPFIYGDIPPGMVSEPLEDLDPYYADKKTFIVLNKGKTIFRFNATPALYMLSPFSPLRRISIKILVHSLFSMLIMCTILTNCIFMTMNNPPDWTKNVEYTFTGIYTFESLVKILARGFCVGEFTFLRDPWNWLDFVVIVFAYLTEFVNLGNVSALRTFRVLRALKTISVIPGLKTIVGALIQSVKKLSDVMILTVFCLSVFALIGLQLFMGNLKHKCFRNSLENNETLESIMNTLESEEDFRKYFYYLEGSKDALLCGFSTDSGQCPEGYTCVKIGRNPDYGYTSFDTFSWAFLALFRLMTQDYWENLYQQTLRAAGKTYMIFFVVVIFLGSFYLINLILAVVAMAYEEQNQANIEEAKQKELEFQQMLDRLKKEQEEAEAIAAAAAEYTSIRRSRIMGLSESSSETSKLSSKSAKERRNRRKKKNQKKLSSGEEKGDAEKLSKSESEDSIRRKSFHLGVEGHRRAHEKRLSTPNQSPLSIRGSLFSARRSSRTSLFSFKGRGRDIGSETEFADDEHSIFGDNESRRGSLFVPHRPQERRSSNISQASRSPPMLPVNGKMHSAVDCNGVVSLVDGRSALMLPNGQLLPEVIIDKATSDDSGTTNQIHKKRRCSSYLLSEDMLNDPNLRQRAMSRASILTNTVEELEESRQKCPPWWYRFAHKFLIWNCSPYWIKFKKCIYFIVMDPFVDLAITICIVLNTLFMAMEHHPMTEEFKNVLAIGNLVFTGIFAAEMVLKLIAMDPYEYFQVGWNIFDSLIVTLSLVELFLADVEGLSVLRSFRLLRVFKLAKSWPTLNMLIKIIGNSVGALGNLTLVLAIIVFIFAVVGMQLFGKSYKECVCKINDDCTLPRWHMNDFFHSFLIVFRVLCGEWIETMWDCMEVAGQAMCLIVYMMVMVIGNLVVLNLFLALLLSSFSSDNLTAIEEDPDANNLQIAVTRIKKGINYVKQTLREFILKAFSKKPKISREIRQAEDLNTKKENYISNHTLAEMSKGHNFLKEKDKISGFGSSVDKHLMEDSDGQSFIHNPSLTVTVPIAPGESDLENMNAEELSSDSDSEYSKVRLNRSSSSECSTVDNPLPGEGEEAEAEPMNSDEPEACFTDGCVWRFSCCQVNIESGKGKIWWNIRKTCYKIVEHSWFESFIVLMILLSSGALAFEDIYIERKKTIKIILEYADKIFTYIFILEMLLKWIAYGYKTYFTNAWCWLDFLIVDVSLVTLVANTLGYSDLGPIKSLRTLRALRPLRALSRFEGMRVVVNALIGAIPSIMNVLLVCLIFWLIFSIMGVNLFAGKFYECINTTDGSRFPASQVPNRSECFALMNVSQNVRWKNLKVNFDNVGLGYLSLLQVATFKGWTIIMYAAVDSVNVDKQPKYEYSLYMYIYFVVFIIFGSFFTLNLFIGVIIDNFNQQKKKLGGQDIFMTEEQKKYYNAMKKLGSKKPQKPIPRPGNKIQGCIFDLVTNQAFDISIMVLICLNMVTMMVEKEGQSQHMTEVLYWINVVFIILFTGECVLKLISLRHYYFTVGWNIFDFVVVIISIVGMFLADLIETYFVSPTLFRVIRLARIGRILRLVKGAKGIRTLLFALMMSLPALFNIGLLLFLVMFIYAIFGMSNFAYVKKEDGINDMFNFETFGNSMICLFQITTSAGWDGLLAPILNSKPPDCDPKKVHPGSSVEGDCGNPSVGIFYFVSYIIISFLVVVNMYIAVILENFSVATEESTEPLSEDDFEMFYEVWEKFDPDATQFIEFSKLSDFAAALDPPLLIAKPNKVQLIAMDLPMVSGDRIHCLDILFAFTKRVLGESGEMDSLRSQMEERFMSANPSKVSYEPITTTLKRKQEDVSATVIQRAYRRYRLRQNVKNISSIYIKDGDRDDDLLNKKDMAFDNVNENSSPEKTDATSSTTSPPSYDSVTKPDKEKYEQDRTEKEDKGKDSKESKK

| IC50 [nM] | Structure (SMILES) |
| --- | --- |
| 2000 to 5000 | COc1cccc(F)c1C(=O)N1CCC2(CC1)Oc1ccccc1-c1c2cnn1C [Compound 763] |
| ≤ 2000 | CCCOc1ccc(C(=O)N2CCC3(CC2)Oc2ccccc2-n2cccc23)cc1C [Compound 764] |
| ≤ 2000 | Cc1[nH]c2c(C(=O)N3CCC4(CC3)Oc3ccccc3-c3c4cnn3C)cccc2c1C [Compound 765] |
| ≤ 2000 | Cn1cc2c(n1)-c1ccccc1OC21CCN(C(=O)c2ccc(S(=O)(=O)NC3CC3)cc2)CC1 [Compound 767] |
| ≤ 2000 | COc1cc(C(=O)N2CCC3(CC2)Oc2ccccc2-n2c3ccc2S(C)(=O)=O)ccc1OC(C)C [Compound 768] |
| ≤ 2000 | CCOc1c(F)cccc1C(=O)N1CCC2(CC1)Oc1ccccc1-n1c(C#N)ccc12 [Compound 769] |
| ≤ 2000 | CC(C)Oc1cccc(C(=O)N2CCC3(CC2)Oc2ccccc2-n2c(C#N)ccc23)c1F [Compound 770] |
| ≤ 2000 | Cn1ncc2c1-c1ccccc1OC21CCN(C(=O)c2ccccc2OCCO)CC1 [Compound 771] |
| ≤ 2000 | COc1cc(C(=O)N2CCC3(CC2)Oc2cc(F)ccc2-n2cccc23)ccc1OCC(N)=O [Compound 772] |
| ≤ 2000 | Cc1ccc(C(=O)N2CCC3(CC2)Oc2ccccc2-c2c3cnn2C)c(Cl)c1 [Compound 773] |
| ≤ 2000 | COc1ccc(C(=O)N2CCC3(CC2)Oc2ccccc2-c2c3cnn2C)c(C)c1 [Compound 774] |
| ≤ 2000 | O=C(c1ccc(OC2COC2)c(F)c1)N1CCC2(CC1)Oc1cc(Cl)ccc1-n1cccc12 [Compound 777] |
| ≤ 2000 | O=C(c1ccc(S(=O)(=O)C(F)F)cc1)N1CCC2(CC1)Oc1ccccc1-n1c(C(F)(F)F)ccc12 [Compound 778] |
| 2000 to 5000 | CC(c1ccc(C(=O)N2CCC3(CC2)Oc2ccccc2-n2c(C#N)ccc23)cc1)S(C)(=O)=O (stereo not shown) [Compound 781] |
| ≤ 2000 | Cc1cc(S(C)(=O)=O)ccc1C(=O)N1CCC2(CC1)Oc1ccccc1-n1c(C#N)ccc12 [Compound 784] |
| ≤ 2000 | COc1cc(C(=O)N2CCC3(CC2)Oc2ccccc2-c2c3cnn2CC(F)(F)F)ccc1OCCC(C)C [Compound 785] |
| ≤ 2000 | CC(C)Oc1ccc(C(=O)N2CCC3(CC2)Oc2ccccc2-c2c3cnn2C)c(OC(C)C)c1 [Compound 788] |
| > 5000 | N#Cc1ccc2n1-c1ccccc1OC21CCN(C(=O)c2ccc(OC[C@H](O)CO)cc2)CC1 [Compound 789] |
| ≤ 2000 | O=C(c1ccccc1O)N1CCC2(CC1)Oc1cc(Cl)ccc1-n1cccc12 [Compound 790] |
| ≤ 2000 | COCCOc1ccc(C(=O)N2CCC3(CC2)Oc2ccccc2-n2cccc23)cc1OC [Compound 791] |
| ≤ 2000 | Cc1cc(C(=O)N2CCC3(CC2)Oc2cc(Cl)ccc2-n2cccc23)ccc1C(C)(C)O [Compound 792] |
| ≤ 2000 | Cc1ccc(C(=O)N2CCC3(CC2)Oc2ccccc2-n2c3ccc2S(C)(=O)=O)cc1Cl [Compound 793] |
| > 5000 | O=C(c1ccc(S(=O)(=O)CCO)cc1)N1CCC2(CC1)Oc1ccccc1-n1c(C(F)(F)F)ccc12 [Compound 794] |
| ≤ 2000 | Cc1cc(C(C)(C)O)ccc1C(=O)N1CCC2(CC1)Oc1ccc(F)cc1-c1nn(C)cc12 [Compound 796] |
| ≤ 2000 | Cc1cccc(C(=O)N2CCC3(CC2)Oc2ccccc2-c2c3cnn2C)c1C [Compound 797] |
| ≤ 2000 | COc1ccc(F)cc1C(=O)N1CCC2(CC1)Oc1cc(Cl)ccc1-n1c(C#N)ccc12 [Compound 799] |
| ≤ 2000 | COc1c(C)cc(C(=O)N2CCC3(CC2)Oc2ccccc2-c2c3cnn2C)cc1C [Compound 801] |
| > 5000 | CC(C)S(=O)(=O)c1ccc(C(=O)N2CCC3(CC2)Oc2cc(F)ccc2-n2c(C(F)(F)F)ccc23)cc1 [Compound 804] |

The remaining lines, values behind:

| Structure (SMILES) | IC50 [nM] |
| --- | --- |
| Cc1cc(C(=O)N2CCC3(CC2)Oc2ccccc2-c2c3cnn2C)ccc1O [Compound 700] | ≤ 2000 |
| Cc1ccc(C(=O)N2CCC3(CC2)Oc2ccccc2-c2c3cnn2C)cc1C [Compound 701] | 2000 to 5000 |
| COc1c(C(=O)N2CCC3(CC2)Oc2ccccc2-c2c3cnn2C)ccc(F)c1F [Compound 702] | 2000 to 5000 |
| COc1cccc(OC)c1C(=O)N1CCC2(CC1)Oc1cc(Cl)ccc1-n1cccc12 [Compound 703] | ≤ 2000 |
| Cn1ncc2c1-c1ccccc1OC21CCN(C(=O)c2ccc(OC(C)(C)C)cc2F)CC1 [Compound 704] | ≤ 2000 |
| CC(C)n1ncc2c1-c1ccccc1OC21CCN(C(=O)c2ccccc2OC(F)F)CC1 [Compound 705] | ≤ 2000 |
| COCCOc1cc(C(=O)N2CCC3(CC2)Oc2cc(Cl)ccc2-n2cccc23)ccn1 [Compound 706] | ≤ 2000 |
| CCCOc1ccc(C(=O)N2CCC3(CC2)Oc2ccccc2-c2c3cnn2C)cc1C [Compound 709] | ≤ 2000 |
| Cc1ccc(OC(C)C)c(C(=O)N2CCC3(CC2)Oc2ccccc2-c2c3cnn2C)c1 [Compound 710] | ≤ 2000 |
| CC(C)C(O)c1ccc(C(=O)N2CCC3(CC2)Oc2ccccc2-c2c3cnn2C)cc1 (stereo not shown) [Compound 711] | ≤ 2000 |
| CCc1ccc(C(=O)N2CCC3(CC2)Oc2cc(C(=O)NC)ccc2-n2cccc23)cc1OC [Compound 713] | ≤ 2000 |
| CN(C)S(=O)(=O)c1ccc(C(=O)N2CCC3(CC2)Oc2ccccc2-c2c3cnn2C)cc1 [Compound 714] | 2000 to 5000 |
| COc1cc(C(=O)N2CCC3(CC2)Oc2ccccc2-c2c3cnn2C)ccc1C(C)(C)CO [Compound 716] | ≤ 2000 |
| Cn1c(C(=O)N2CCC3(CC2)Oc2cc(Cl)ccc2-n2cccc23)cccc1=O [Compound 718] | 2000 to 5000 |
| CC(C)NS(=O)(=O)c1ccc(C(=O)N2CCC3(CC2)Oc2ccccc2-n2c(C#N)ccc23)cc1 [Compound 721] | ≤ 2000 |
| CC(C)(O)c1ccc(C(=O)N2CCC3(CC2)Oc2ccccc2-n2c(C(F)(F)F)ccc23)cc1 [Compound 722] | ≤ 2000 |
| COC(=O)C(C)(C)c1ccc(C(=O)N2CCC3(CC2)Oc2cc(Cl)ccc2-n2cccc23)cc1OC [Compound 723] | ≤ 2000 |
| COc1cccc(C(=O)N2CCC3(CC2)Oc2cc(Cl)ccc2-n2cccc23)c1 [Compound 724] | ≤ 2000 |
| COC[C@H](C)Oc1ccc(C(=O)N2CCC3(CC2)Oc2ccccc2-n2cccc23)cc1OC [Compound 725] | ≤ 2000 |
| CC(C)(O)c1ccc(C(=O)N2CCC3(CC2)Oc2ncccc2-n2c(C(F)(F)F)ccc23)cc1 [Compound 726] | ≤ 2000 |
| COc1cc(C(=O)N2CCC3(CC2)Oc2ccccc2-n2cccc23)ccc1OC(C)(C)C [Compound 727] | ≤ 2000 |
| CCn1cccc(C(=O)N2CCC3(CC2)Oc2cc(Cl)ccc2-n2cccc23)c1=O [Compound 728] | ≤ 2000 |
| COc1ccc(C(=O)N2CCC3(CC2)Oc2cc(Cl)ccc2-n2cccc23)c(OC(F)(F)F)c1 [Compound 729] | ≤ 2000 |
| Cc1cc(C(=O)N2CCC3(CC2)Oc2ccccc2-n2c(C(F)(F)F)ccc23)ccc1O [Compound 732] | ≤ 2000 |

| Structure (SMILES) | IC50 [nM] |
| --- | --- |
| Cc1cc(C(=O)N2CCC3(CC2)Oc2ccccc2-n2c(CN)ccc23)ccc1OC(C)C [Compound 733] | 2000 to 5000 |
| COc1cc(OC(C)(C)C#N)ccc1C(=O)N1CCC2(CC1)Oc1ccccc1-c1c2cnn1C [Compound 734] | ≤ 2000 |
| CCc1ccc(C(=O)N2CCC3(CC2)Oc2ccccc2-n2c(C)ccc23)cc1OC [Compound 735] | ≤ 2000 |
| COc1ccc(C(=O)N2CCC3(CC2)Oc2cc(Cl)ccc2-n2cccc23)cc1S(N)(=O)=O [Compound 736] | > 5000 |
| Cc1cc(C(=O)N2CCC3(CC2)Oc2cc(Cl)ccc2-n2cccc23)ccc1OC(C)C [Compound 737] | ≤ 2000 |
| CCOc1cccc(C(=O)N2CCC3(CC2)Oc2ccccc2-c2c3cnn2C)c1F [Compound 738] | 2000 to 5000 |
| COc1cccc(F)c1C(=O)N1CCC2(CC1)Oc1cc(Cl)ccc1-n1cccc12 [Compound 739] | ≤ 2000 |
| Cn1cc2c(n1)-c1ccccc1OC21CCN(C(=O)c2ccccc2OC(F)F)CC1 [Compound 740] | ≤ 2000 |
| Cn1ccc(C(=O)N2CCC3(CC2)Oc2cc(Cl)ccc2-n2cccc23)cc1=O [Compound 741] | 2000 to 5000 |
| CCn1ncc2c1-c1cc(F)ccc1OC21CCN(C(=O)c2ccc(OC(C)C)c(OC)c2)CC1 [Compound 742] | 2000 to 5000 |
| CC[C@H](C)Oc1ccc(C(=O)N2CCC3(CC2)Oc2ccccc2-n2cccc23)cc1C#N [Compound 744] | ≤ 2000 |
| Cc1cc(C(=O)N2CCC3(CC2)Oc2ccccc2-c2c3cnn2C)cc(C)c1OC(C)C [Compound 745] | ≤ 2000 |
| Cc1c(CO)cccc1C(=O)N1CCC2(CC1)Oc1ccccc1-c1c2cnn1C [Compound 746] | 2000 to 5000 |
| COc1cc(C(=O)N2CCC3(CC2)Oc2ccccc2-c2nn(C)cc23)cc(OC)c1OC [Compound 747] | > 5000 |
| COc1cccc(OC)c1C(=O)N1CCC2(CC1)Oc1ccccc1-c1c2cnn1C [Compound 748] | 2000 to 5000 |
| Cc1cc(C(=O)N2CCC3(CC2)Oc2ccccc2-c2c3cnn2C)ccc1C(C)(C)O [Compound 750] | ≤ 2000 |
| COc1cc(C(=O)N2CCC3(CC2)Oc2cc(Cl)ccc2-n2cccc23)ccc1OC[C@@H]1COC(C)(C)O1 [Compound 751] | ≤ 2000 |
| O=C(c1ccccc1OC(F)F)N1CCC2(CC1)Oc1ccccc1-c1nn(C(F)(F)F)cc12 [Compound 752] | ≤ 2000 |
| COc1cc(C(=O)N2CCC3(CC2)Oc2ccccc2-c2nn(C)cc23)ccc1C(C)(C)C [Compound 754] | > 5000 |
| COc1cc(C(=O)N2CCC3(CC2)Oc2ccccc2-n2c(C#N)ccc23)ccc1OCC(C)C [Compound 755] | ≤ 2000 |
| COc1cc(C(=O)N2CCC3(CC2)Oc2ccccc2-c2c3cnn2C)ccc1OC(C)(C)C#N [Compound 758] | ≤ 2000 |
| COc1cc(C(=O)N2CCC3(CC2)Oc2cc(Cl)ccc2-n2cccc23)ccc1OC[C@H]1COC(C)(C)O1 [Compound 759] | ≤ 2000 |
| COCCOc1ccc(C(=O)N2CCC3(CC2)Oc2ccccc2-c2c3cnn2C)cc1C [Compound 761] | ≤ 2000 |
| CC(C)(O)c1ccc(C(=O)N2CCC3(CC2)Oc2ccccc2-n2c(C#N)ccc23)cc1 [Compound 762] | ≤ 2000 |
